Laboratory results from PubChem BioAssay (NCI).
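1) Cells in 96-well plates. 2) Compound, 48 h, 5 concentrations. 3) Linear interpolation between surrounding doses. 4) Unreached endpoint = highest concentration. At the TGI there is no net growth.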 Where a SMILES comes first, the peptide text is derived from it. Side-chain parts run from the residue outwards. The star is where a group is joined. Cbz = O=C(OCc1ccccc1)*; Boc = CC(C)(C)OC(=O)*

Tests used:
Assay in all cases: DTP human tumour cell line panel, 48 h
M14 melanoma = test system: M14 melanoma
HL-60(TB) leukemia = test system: HL-60(TB) leukemia
HCT-116 colon = test system: HCT-116 colon
A549 NSCLC = test system: A549 NSCLC
LXFL 529 NSCLC = test system: LXFL 529 NSCLC
NCI-H23 lung = test system: NCI-H23 lung
UACC-62 melanoma = test system: UACC-62 melanoma
HOP-18 NSCLC = test system: HOP-18 NSCLC
XF 498 CNS = test system: XF 498 CNS
SNB-78 CNS = test system: SNB-78 CNS
MALME-3M melanoma = test system: MALME-3M melanoma
M19-MEL melanoma = test system: M19-MEL melanoma
UACC-257 melanoma = test system: UACC-257 melanoma
DMS 114 small cell lung = test system: DMS 114 small cell lung

SMILES | TGI (M14 melanoma) [µM] | TGI (HL-60(TB) leukemia) [µM] | TGI (HCT-116 colon) [µM] | TGI (A549 NSCLC) [µM] | TGI (LXFL 529 NSCLC) [µM] | TGI (NCI-H23 lung) [µM] | TGI (UACC-62 melanoma) [µM] | TGI (HOP-18 NSCLC) [µM] | TGI (XF 498 CNS) [µM] | TGI (SNB-78 CNS) [µM] | TGI (MALME-3M melanoma) [µM] | TGI (M19-MEL melanoma) [µM] | TGI (UACC-257 melanoma) [µM] | TGI (DMS 114 small cell lung) [µM]
CC(=O)OCCOCNC(=S)N/N=C(\C)c1cccs1 | > 100 | > 100 | > 100 | > 100 | > 100 | > 100 | > 100 | > 100 | > 100 | > 100 | > 100 | > 100 | > 100 | > 100
COc1ccc(CCCN2c3ccccc3Sc3ccccc32)cc1 | > 100 | > 100 | > 100 | > 100 | > 100 | > 100 | > 100 | > 100 | > 100 | > 100 | > 100 |  | > 100 | > 100
c1ccc2c(c1)Sc1ccccc1N2C1CN2CCC1CC2 (stereo not given) |  | 32 | 28.8 | 32.1 | 30.6 | 74.5 | 34.5 | 47.5 | 28.8 | 30 | 30.5 | 29.7 | 31.8 | 35.3
COc1ccc(C2=C(Cl)c3cc(OC)c(OC)cc3C2)cc1OC | > 100 | > 100 | > 100 | > 100 | > 100 | > 100 | > 100 | > 100 | > 100 | > 100 | > 100 | > 100 | > 100 | > 100
CS(=O)(=O)OCC1CCCCCCCCCCC12SCCCS2 (stereo not given) | > 100 | > 100 | > 100 | > 100 |  | > 100 | > 100 |  |  |  | > 100 |  | > 100 | 
O=NN1C(c2ccccc2)CCCC1c1ccccc1 (stereo not given) |  | > 75.2 | > 100 | > 100 |  | > 100 | > 100 | > 100 | 87.5 | > 100 | > 100 | > 100 | > 100 | > 100
CC1=NN(C(=O)Cc2ccccc2)C(=O)/C1=C\c1ccccc1O | > 100 | > 100 | > 100 | > 100 | > 100 | > 100 | > 100 |  | > 100 | > 100 | > 100 | > 100 | > 100 | > 100
CC1C(C#N)(C#N)C(C#N)=C(N)C1(C)[N+](=O)[O-] (stereo not given) | > 100 | 90.7 | > 100 | > 100 |  | > 100 | > 100 |  |  |  | > 100 |  | > 100 | 
Cn1nc2ccc3nccc(NCCNCCO)c3c2n1 | > 100 | > 100 | 89.4 | > 100 | > 100 | > 100 | > 100 |  | > 100 | > 100 | > 100 | > 100 | 76.9 | 
CC(=O)c1[nH]c(Nc2ccc(C)cc2)c(C(=S)Nc2ccccc2)c1N | 36.4 | 54.1 | 35.4 | 30.7 |  | 42.8 | 31.7 |  |  |  | 31.9 |  | 36.5 | 
C[C@]12CC[C@H](O)CC1=CC[C@@H]1[C@@H]2CC[C@]2(C)C(=O)/C(=C/c3ccc([N+](=O)[O-])cc3)C[C@@H]12 | > 100 | > 100 | 62.3 | 29.8 |  | 57 | > 100 |  |  |  | 53.7 |  | 56 | 
Cn1c(COC(=O)NC2CCCCC2)c(COC(=O)NC2CCCCC2)c2ccc3cc(C=O)ccc3c21 | > 100 | > 100 | > 100 | > 100 |  | > 100 | > 100 |  |  |  | > 100 |  | > 100 | 
NC1=Nc2ccccc2Sc2nc3ccccc3n21 | 82.4 | 6.49 | 32.8 | > 100 |  | > 100 | > 100 |  |  |  | > 100 |  | > 100 | 
O=C1c2cccnc2-c2nccc3c2c1nc1ccc(Br)cc13 | 0.0773 | 0.0377 | 0.0324 | 0.387 |  | 0.12 | 0.124 |  |  |  | 0.338 |  | 0.169 | 
C1=CN2C[n+]3ccc4ccccc4c3N=C2c2ccccc21 | 11.7 | 9.1 | > 100 | 21.6 |  | 21.4 | 4.32 |  |  |  | 3.46 |  | 20.7 | 
O=C(CC(c1ccccc1)C(C(=O)c1ccncc1)C(CC(=O)c1ccncc1)c1ccccc1)c1ccncc1 (stereo not given) | > 100 | > 100 | > 100 | > 100 |  | > 100 | > 100 |  |  |  | > 100 |  | > 100 | 
O=C(Nc1ccc(Sc2ccc(N=Nc3c(O)c(S(=O)(=O)O)cc4cc(S(=O)(=O)O)ccc34)cc2)cc1)c1ccc(N=Nc2c(O)c(S(=O)(=O)O)cc3cc(S(=O)(=O)O)ccc23)cc1 | 91.8 | 37.4 | > 100 | > 100 | > 100 | 61.2 | 62 | 79.7 | > 100 | > 100 | 53.5 | > 100 | > 100 | 42.9
COc1cc([C@@H]2c3cc4c(cc3[C@@H](c3c(O)cc(O)c5c3O[C@H](c3ccc(O)c(O)c3)[C@H](OC(=O)c3cc(O)c(O)c(O)c3)C5)[C@H]3COC(=O)[C@H]23)OCO4)cc(OC)c1O | 64.2 | 56.3 | > 100 | 99.2 |  | > 100 | > 100 |  |  |  | > 100 |  | > 100 | 
CC(C)=CCC[C@@H](C)C1=CC(=O)C(C)=C(O)C1=O | 17.4 | 0.878 | 11.8 | 25 |  | 21.1 | 24.1 |  |  |  | 23.3 |  | 25.5 | 
O=C1O[C@H]2C3C4CCC(C4[C@@H]2I)[C@H]13 (stereo not given in full) | > 100 | > 100 | > 100 | > 100 |  | > 100 | > 100 |  |  |  | > 100 |  | > 100 | 
O=C(NN1C(=O)C(Cl)C1c1ccccc1Cl)c1ccccc1O (stereo not given) | > 100 | > 100 | > 100 | > 100 | > 100 |  | > 100 | > 100 | > 100 | > 100 | > 100 | > 100 | > 100 | > 100
COc1cc(/C=C/C(=N\NC(=S)NN)c2sc(NNC(C)=O)nc2C)ccc1O | > 100 | > 100 | > 100 | > 100 |  | > 100 | > 100 |  |  |  | > 100 |  | > 100 | 
O=C(c1ccccc1O)c1cc(-c2ncc3c(=O)c4ccccc4oc3n2)c(-c2ccccc2O)[nH]c1=O |  | 53.2 | 47.4 | 73.1 |  | 50.1 | 51.4 | > 100 | 67.9 | > 88.1 | 74.4 | > 68.2 | 47.1 | 80.4
COc1cc(O)cc(O)c1C(=O)CC(Cl)(Cl)Cl | > 100 | > 100 | > 100 | > 100 |  | > 100 | > 100 |  |  |  | > 100 |  | > 100 | 
COc1cc2c(c(OC)c1OC)-c1ccc(SC)c(=O)cc1[C@@H](NCc1cccc([N+](=O)[O-])c1)CC2 | 13.1 | > 100 | < 0.01 | > 100 | > 100 | < 0.01 | 17.8 | > 100 |  | > 100 | > 100 | > 100 | > 100 | 
C[N+](C)(C)CC(CC(=O)[O-])C1CC1 (stereo not given) | > 100 | > 100 |  | > 100 | > 100 | > 100 | > 100 | > 100 | > 100 |  | > 100 | > 100 | > 100 | > 100
CC(C)(C)OC(=O)NC(CCCCNC(=O)CNC(=O)OCc1ccccc1)C(=O)NC(CCCCNC(=O)CNC(=O)OCc1ccccc1)C(=O)NC(CCCCNC(=O)CNC(=O)OCc1ccccc1)C(=O)NC(CCCCNC(=O)CNC(=O)OCc1ccccc1)C(=O)O (stereo not given) (Boc-K([Gly-Cbz])K([Gly-Cbz])K([Gly-Cbz])K([Gly-Cbz])-OH; configuration not given here) | > 100 | > 100 | > 100 | > 100 |  | > 100 | > 100 |  |  |  | > 100 |  | > 100 | 
Cc1ccc(NC(=O)/C(=N/NC(=O)C[N+](C)(C)C)c2nc3ccccc3[nH]c2=O)cc1 | > 100 |  | > 100 | > 100 | > 100 | > 100 | > 100 | > 100 |  | > 100 | > 100 | > 100 | > 100 | > 100
Cn1cnc(SC2=C3C(=O)C=C4S[C@H]5C[C@]42c2c(c(O)c4c6c2=[N+]3CCC=6C=N4)N5)c1CC(N)C(=O)O (stereo not given in full) | 29.1 | 38.8 | 13.3 | 56.7 | 27.1 | 23.8 | 29.2 | > 100 | 28.7 | 40.9 | 12.4 | 21.5 | 29.9 | 6.11
